Laboratory results taken from PubChem BioAssay (NCI).
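Assay format: 96-well plates, 48-hour exposure. The concentration for 50% growth inhibition is given as GI50. TGI marks complete inhibition of growth.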

How the values were obtained:
Assay in all cases: NCI tumour cell line growth inhibition, 48 h
SK-MEL-2 melanoma = test system: SK-MEL-2 melanoma
SW-620 colon = test system: SW-620 colon
MCF7 breast = test system: MCF7 breast
HT29 colon = test system: HT29 colon
K-562 leukemia = test system: K-562 leukemia
NCI-H226 lung = test system: NCI-H226 lung
UACC-62 melanoma = test system: UACC-62 melanoma
HCT-116 colon = test system: HCT-116 colon
NCI-H460 lung = test system: NCI-H460 lung
SF-268 CNS = test system: SF-268 CNS
KM12 colon = test system: KM12 colon
SNB-75 CNS = test system: SNB-75 CNS
SK-OV-3 ovarian = test system: SK-OV-3 ovarian
SNB-19 CNS = test system: SNB-19 CNS
HOP-92 NSCLC = test system: HOP-92 NSCLC
UO-31 renal = test system: UO-31 renal
M14 melanoma = test system: M14 melanoma
EKVX NSCLC = test system: EKVX NSCLC
CCRF-CEM leukemia = test system: CCRF-CEM leukemia
IGROV1 ovarian = test system: IGROV1 ovarian
SR leukemia = test system: SR leukemia
TK-10 renal = test system: TK-10 renal
HOP-62 NSCLC = test system: HOP-62 NSCLC
HCT-15 colon = test system: HCT-15 colon
NCI/ADR-RES ovarian = test system: NCI/ADR-RES ovarian
U251 CNS = test system: U251 CNS
MDA-MB-231 breast = test system: MDA-MB-231 breast
DU-145 prostate = test system: DU-145 prostate
RPMI-8226 leukemia = test system: RPMI-8226 leukemia
NCI-H522 lung = test system: NCI-H522 lung
CAKI-1 renal = test system: CAKI-1 renal
SN12C renal = test system: SN12C renal
SK-MEL-5 melanoma = test system: SK-MEL-5 melanoma
MOLT-4 leukemia = test system: MOLT-4 leukemia
LOX IMVI melanoma = test system: LOX IMVI melanoma
PC-3 prostate = test system: PC-3 prostate
HCC-2998 colon = test system: HCC-2998 colon
T-47D breast = test system: T-47D breast
NCI-H23 lung = test system: NCI-H23 lung
ACHN renal = test system: ACHN renal
MALME-3M melanoma = test system: MALME-3M melanoma
OVCAR-5 ovarian = test system: OVCAR-5 ovarian
OVCAR-4 ovarian = test system: OVCAR-4 ovarian
SF-295 CNS = test system: SF-295 CNS
COLO 205 colon = test system: COLO 205 colon
786-0 renal = test system: 786-0 renal
HS 578T breast = test system: HS 578T breast
MDA-MB-435 = test system: MDA-MB-435
OVCAR-8 ovarian = test system: OVCAR-8 ovarian
OVCAR-3 ovarian = test system: OVCAR-3 ovarian
A549 NSCLC = test system: A549 NSCLC
SK-MEL-28 melanoma = test system: SK-MEL-28 melanoma

`C[C@]12CCC3c4ccc(O)cc4CCC3C1CC[C@@H]2NC(=O)/C=C/c1ccc(O)c(O)c1` (some centres undefined) showed a GI50 (SK-MEL-2 melanoma) of 20.6 µM, a TGI (SK-MEL-2 melanoma) of 51.3 µM and a GI50 (SW-620 colon) of 15.9 µM. For the same molecule, the TGI (SW-620 colon) was 45 µM, the GI50 (MCF7 breast) was 16.1 µM and the TGI (MCF7 breast) was 49.1 µM. The GI50 (HT29 colon) was 3.97 µM, the TGI (HT29 colon) was 15.4 µM and the GI50 (K-562 leukemia) was 6.51 µM. It also gave a TGI (K-562 leukemia) of 55.4 µM, a GI50 (NCI-H226 lung) of 12.3 µM and a TGI (NCI-H226 lung) of 37.9 µM. The GI50 (UACC-62 melanoma) was 11.5 µM, the TGI (UACC-62 melanoma) was 24.4 µM and the GI50 (HCT-116 colon) was 10.6 µM. For the same molecule, the TGI (HCT-116 colon) was 23 µM, the GI50 (NCI-H460 lung) was 11.9 µM and the TGI (NCI-H460 lung) was 35.3 µM. For the same molecule, the GI50 (SF-268 CNS) was 11.2 µM, the TGI (SF-268 CNS) was 45.3 µM and the GI50 (KM12 colon) was 34.2 µM. The TGI (KM12 colon) was > 100 µM, the GI50 (SNB-75 CNS) was 2.66 µM and the TGI (SNB-75 CNS) was 9.36 µM. The GI50 (SK-OV-3 ovarian) was 14.8 µM, the TGI (SK-OV-3 ovarian) was 31.6 µM and the GI50 (SNB-19 CNS) was 13.7 µM. It also gave a TGI (SNB-19 CNS) of 33.9 µM, a GI50 (HOP-92 NSCLC) of 5.59 µM and a TGI (HOP-92 NSCLC) of 25.1 µM. For the same molecule, the GI50 (UO-31 renal) was 11.9 µM, the TGI (UO-31 renal) was 47 µM and the GI50 (M14 melanoma) was 10.6 µM. The TGI (M14 melanoma) was 22.9 µM, the GI50 (EKVX NSCLC) was 10.2 µM and the TGI (EKVX NSCLC) was 31.2 µM. It also gave a GI50 (CCRF-CEM leukemia) of 3.2 µM, a TGI (CCRF-CEM leukemia) of 30 µM and a GI50 (IGROV1 ovarian) of 12.1 µM. It also gave a TGI (IGROV1 ovarian) of 32.2 µM, a GI50 (SR leukemia) of 7.26 µM and a TGI (SR leukemia) of 42 µM. It also gave a GI50 (TK-10 renal) of 13.8 µM, a TGI (TK-10 renal) of 50.6 µM and a GI50 (HOP-62 NSCLC) of 16.1 µM. The TGI (HOP-62 NSCLC) was 35.9 µM, the GI50 (HCT-15 colon) was 4.89 µM and the TGI (HCT-15 colon) was 19 µM. The GI50 (NCI/ADR-RES ovarian) was 16.2 µM, the TGI (NCI/ADR-RES ovarian) was 41.7 µM and the GI50 (U251 CNS) was 6.63 µM. It also gave a TGI (U251 CNS) of 21.1 µM, a GI50 (MDA-MB-231 breast) of 14.5 µM and a TGI (MDA-MB-231 breast) of 33.6 µM. It also gave a GI50 (DU-145 prostate) of 13.1 µM, a TGI (DU-145 prostate) of 32.5 µM and a GI50 (RPMI-8226 leukemia) of 4.39 µM. It also gave a TGI (RPMI-8226 leukemia) of 24.8 µM, a GI50 (NCI-H522 lung) of 6.25 µM and a TGI (NCI-H522 lung) of 27.4 µM. For the same molecule, the GI50 (CAKI-1 renal) was 16.4 µM, the TGI (CAKI-1 renal) was 48.4 µM and the GI50 (SN12C renal) was 13.4 µM. For the same molecule, the TGI (SN12C renal) was 34.2 µM, the GI50 (SK-MEL-5 melanoma) was 10.5 µM and the TGI (SK-MEL-5 melanoma) was 25.2 µM. It also gave a GI50 (MOLT-4 leukemia) of 3.34 µM, a TGI (MOLT-4 leukemia) of 24 µM and a GI50 (LOX IMVI melanoma) of 3.86 µM. The TGI (LOX IMVI melanoma) was 17.8 µM, the GI50 (PC-3 prostate) was 3.94 µM and the TGI (PC-3 prostate) was 40.5 µM. For the same molecule, the GI50 (HCC-2998 colon) was 15.6 µM, the TGI (HCC-2998 colon) was 30.3 µM and the GI50 (T-47D breast) was 9.57 µM. The TGI (T-47D breast) was > 100 µM, the GI50 (NCI-H23 lung) was 11.8 µM and the TGI (NCI-H23 lung) was 28.5 µM. It also gave a GI50 (ACHN renal) of 12.4 µM, a TGI (ACHN renal) of 25.1 µM and a GI50 (MALME-3M melanoma) of 25.1 µM. The TGI (MALME-3M melanoma) was 70.9 µM, the GI50 (OVCAR-5 ovarian) was 18.1 µM and the TGI (OVCAR-5 ovarian) was 35.9 µM. For the same molecule, the GI50 (OVCAR-4 ovarian) was 5.94 µM, the TGI (OVCAR-4 ovarian) was 24.7 µM and the GI50 (SF-295 CNS) was 18.5 µM. The TGI (SF-295 CNS) was 44.8 µM, the GI50 (COLO 205 colon) was 13.1 µM and the TGI (COLO 205 colon) was 32.9 µM. It also gave a GI50 (786-0 renal) of 10.4 µM, a TGI (786-0 renal) of 29.2 µM and a GI50 (HS 578T breast) of 15.4 µM. The TGI (HS 578T breast) was > 100 µM, the GI50 (MDA-MB-435) was 13.6 µM and the TGI (MDA-MB-435) was 39.1 µM. For the same molecule, the GI50 (OVCAR-8 ovarian) was 10.4 µM, the TGI (OVCAR-8 ovarian) was 29.1 µM and the GI50 (OVCAR-3 ovarian) was 21.5 µM. The TGI (OVCAR-3 ovarian) was 48.7 µM, the GI50 (A549 NSCLC) was 15.5 µM and the TGI (A549 NSCLC) was 31.8 µM. For the same molecule, the GI50 (SK-MEL-28 melanoma) was 9.59 µM and the TGI (SK-MEL-28 melanoma) was 24.5 µM.
